Article PMC3311015 (Proceedings of the Japan Academy. Series B, Physical and …, 2011)
Read-outs that look alike come from different tables or passages of the source.

Key:
in vivo [1] = format: in vivo, Male SD rats
Protocol: (§1) Administration of Ket to rats was carried out as previously reported.[9]) Ketamine hydrochloride (Wako Pure Chemicals Co., Ltd., Osaka, Japan) was dissolved in physiological saline ([…]) and then intraperitoneally (i.p.) administered (30 mg·kg^−1) to 7-week-old rats daily for 5 consecutive days. The control animals received only saline (1 mL·kg^−1·day^−1). The rats were used for experiments 4 weeks after cessation of the ketamine or saline treatment.
A solution of MPC (5.0 or 50 mg·kg^−1·3 mL^−1) was prepared in PBS/ethanol/PEG (2.8/0.1/0.1) and was i.p. administered to rats. A heparinized syringe with a 25-gauge needle was used to draw blood (approximately 0.20 mL) from the left jugular vein at 0.083, 0.25, 0.5, 1, 2, and 3 h after administration of MPC (5.0 mg·kg^−1, n = 4), or at 0.083, 0.25, 0.5, 1, and 3 h after administration of MPC (50 mg·kg^−1, n = 5–6). Before administration of either dose of MPC, blood (approximately 0.20 mL) was obtained from each rat and used as the control. The blood was centrifuged at 3,000 g for 10 min at 4℃ to obtain plasma. The plasma was transferred to another tube and stored at −80℃ until it was analyzed.
For determining the plasma concentration of MPC, 2 calibration curves (31.25–250 µM and 200–800 µM) were constructed. Ten microliters of PBS or rat blank plasma was spiked with 10 µL of 31.25–800 µM MPC dissolved in CH3CN and 10 µL of 200 µM I.S. dissolved in CH3CN, and vigorously mixed with 70 µL of CH3CN/MeOH (50/50). In the case of plasma samples from the rats administered MPC, 10 µL of CH3CN was used instead of MPC in CH3CN.
After centrifugation at 2,500 rpm for 5 min, 50 µL of the supernatant was sampled and evaporated in vacuo. The obtained residue was dissolved in 100 µL of the mobile phase, 60 µL (31.25–250 µM) or 20 µL (200–800 µM) of the final solution after filtration with Durapore® (0.2 µm membrane, Millipore K.K., Tokyo, Japan), and was injected into the LC-MS system.
The LC-MS apparatus comprised an Agilent 1200 series HPLC (Agilent Technologies, CA, U.S.A.) and a time of flight (TOF)-MS, JMS-T100 LP AccuTOF LC-Plus, equipped with an electrospray ionization (ESI) source (JEOL Co. Ltd., Tokyo, Japan). The separation column used in this study was TSKgel ODS-80Ts QA (150 mm × 2.0 mm; i.d., 5 µm) (Tosoh Corporation, Tokyo, Japan). For the mobile phase, 0.1% HCO2H in H2O/CH3CN (95/5) was eluted isocratically at 0.16 mL·min^−1. Column temperature was maintained at 40℃. The conditions for ESI-MS detection were as follows: positive ion mode; needle voltage was set at 2,000 V; and the ring lens and orifice 1 and 2 voltages were set at 8, 49, and 4 V, respectively. Nitrogen was used as the nebulizing and desolvating gas, and the pressure was constant at 0.617 MPa. The desolvation chamber and orifice 1 temperatures were 250℃ and 80℃, respectively. The data were obtained using Mass Center software, MS-56010MP (JEOL).
(§2) Pharmacokinetic parameters obtained in the present study were determined by a simplex method analysis or moment analysis. Statistical analyses were performed using a one-way analysis of variance (ANOVA), followed by Bonferroni’s multiple comparison test. A p value below 0.05 was judged as a significant difference.

[2] = target: T1, D-amino acid oxidase (DAAO) (Rattus norvegicus, UniProt O35078); test: DAAO-inhibitory effect of MPC in vivo (change of plasma D-Trp concentration after MPC pretreatment); parameters: species or system Male SD rats; conditions: MPC 50 mg·kg^−1 i.p. 30 min before D-Trp 100 mg·kg^−1 i.p.
T1 construct: Male SD rats were purchased from Charles River Japan; from tissue; host or cells: whole animal (male SD rats); DAAO activity is attributed to liver and kidney cells
Protocol: as §1
(§3) D-Trp was dissolved in PBS (10 mg·mL^−1) and administered i.p. to control or Ket-treated rats (100 mg·kg^−1; n = 3–5) at 30 min after i.p. administration of MPC (50 mg·kg^−1). A heparinized syringe with a 25-gauge needle was used to draw blood (approximately 0.20 mL) from the left jugular vein 0.5, 1, 1.5, 2, 3, 4, 5, and 6 h after administration of D-Trp. The blood was treated in a similar manner as described in previous paper.[17]) Plasma D-Trp concentration was determined by our previously published HPLC method.[17])
as §2

[3] = rat, in vivo, 10 mg/kg; cited from earlier work
[4] = rat; cited from earlier work
in vivo [5] = test: in vivo; parameters: species or system Male SD rats; conditions: D-Trp i.p. 100 mg·kg^−1; for AUC / Cmax / k el / half-life: male, SD, rat, in vivo, ip, 100 mg/kg; for AUC: read-out: AUC of plasma D-Trp; for Cmax: read-out: Cmax of plasma D-Trp; for k el: read-out: Ke of plasma D-Trp (converted); for half-life: read-out: t1/2 of plasma D-Trp
Protocol: as §1
as §3, with “D-Trp was dissolved in PBS (10 mg·mL^−1) and administered i.p. to control or Ket-treated rats (100 mg·kg^−1; n = 3–5) at 30 min after i.p. administration of MPC (50 mg·kg^−1).” left out
as §2

DAAO = tested on: DAAO; parameters: method as in PMID 20801337; conditions: D-Trp as substrate for DAAO; cited from earlier work
[6] = Ket-treated rat, with pretreatment of MPC (50 mg·kg^−1)
[7] = Ket-treated rat, without pretreatment of MPC
[8] = control rat, with pretreatment of MPC (50 mg·kg^−1)
[9] = control rat, without pretreatment of MPC

T1 sequence (O35078 whole entry): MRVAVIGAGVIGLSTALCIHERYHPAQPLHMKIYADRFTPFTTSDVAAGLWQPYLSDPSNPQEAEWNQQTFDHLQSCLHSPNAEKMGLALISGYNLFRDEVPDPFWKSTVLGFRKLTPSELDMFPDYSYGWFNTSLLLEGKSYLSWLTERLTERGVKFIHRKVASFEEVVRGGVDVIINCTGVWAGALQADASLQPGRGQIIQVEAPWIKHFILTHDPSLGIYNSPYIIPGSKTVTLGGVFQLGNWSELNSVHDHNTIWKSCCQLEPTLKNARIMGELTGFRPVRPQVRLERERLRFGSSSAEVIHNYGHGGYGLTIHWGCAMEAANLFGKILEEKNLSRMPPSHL

Cc1cc(C(=O)O)n[nH]1 [MPC, 3-methylpyrazole-5-carboxylic acid]
differences in PK parameters (Cmax, t1/2, AUC) of plasma MPC between control and Ket-treated rats (in vivo [1]; MPC i.p. 5.0 mg·kg^−1): no remarkable differences
time at which the maximum concentration (Cmax) of plasma MPC was reached (in vivo [1]; MPC i.p. 5.0 mg·kg^−1, Ket-treated rats): 0.5 h
time at which the maximum concentration (Cmax) of plasma MPC was reached (in vivo [1]; MPC i.p. 5.0 mg·kg^−1, control rats): 0.5 h
Cmax value of plasma MPC concentration in Ket-treated rats compared with control group (in vivo [1]; MPC i.p. 50 mg·kg^−1): significantly higher
plasma MPC concentrations at 5.0 and 15 min in Ket-treated rats compared with control groups (in vivo [1]; MPC i.p. 50 mg·kg^−1, p < 0.01 and p < 0.05): significantly higher
clearance (CL) of plasma MPC (in vivo [1]; control rats, i.p. administration, present data): 305 mL/min/kg
half-life (in vivo [1]; male, SD, rat, in vivo, ip, control rats, i.p. administration, present data, read-out: t1/2 of plasma MPC): 50.8 min
plasma D-Trp concentrations after MPC pretreatment compared with no pretreatment ([2]; Ket-treated rats): no significant increase
plasma D-Trp concentrations after MPC pretreatment compared with no pretreatment ([2]; control rats): significantly higher
clearance (CL) of plasma MPC [3]: 3.67 mL/min/kg
t1/2 of plasma MPC [3]: 335 min

NC1(c2ccccc2Cl)CCCCC1=O (centres unmarked) [norketamine]
half-life in plasma [4]: 36 to 48 min

N[C@H](Cc1c[nH]c2ccccc12)C(=O)O [D-Trp, D-tryptophan]
CL of plasma D-Trp (in vivo [5]; [6]): 6.73 ± 1.67 mL/min/kg
Vd of plasma D-Trp (in vivo [5]; [6]): 0.544 ± 0.09 L/kg
CL of plasma D-Trp (in vivo [5]; [7]): 11.6 ± 1.83 mL/min/kg
Vd of plasma D-Trp (in vivo [5]; [7]): 0.703 ± 0.07 L/kg
CL of plasma D-Trp (in vivo [5]; [8]): 3.05 ± 0.17 mL/min/kg
Vd of plasma D-Trp (in vivo [5]; [8]): 0.237 ± 0.02 L/kg
CL of plasma D-Trp (in vivo [5]; [9]): 10 ± 0.33 mL/min/kg
Vd of plasma D-Trp (in vivo [5]; [9]): 0.712 ± 0.04 L/kg
AUC (in vivo [5]; [6]): 983 ± 128 µM·h
Cmax (in vivo [5]; [6]): 608 ± 115 µM
k el (in vivo [5]; [6]): 0.0002 s⁻¹
half-life (in vivo [5]; [6]): 60.2 ± 6.1 min
AUC (in vivo [5]; [7]): 719 ± 63.6 µM·h
Cmax (in vivo [5]; [7]): 587 ± 33.5 µM
k el (in vivo [5]; [7]): 0.000269 s⁻¹
half-life (in vivo [5]; [7]): 43.7 ± 2.79 min
AUC (in vivo [5]; [8]): 2080 ± 138 µM·h
Cmax (in vivo [5]; [8]): 1130 ± 75 µM
k el (in vivo [5]; [8]): 0.000214 s⁻¹
half-life (in vivo [5]; [8]): 54 ± 0.1 min
AUC (in vivo [5]; [9]): 693 ± 42.9 µM·h
Cmax (in vivo [5]; [9]): 567 ± 42.6 µM
k el (in vivo [5]; [9]): 0.000236 s⁻¹
half-life (in vivo [5]; [9]): 49.1 ± 1.3 min
Km (DAAO): 845 µM

CNC1(c2ccccc2Cl)CCCCC1=O (centres unmarked) [ketamine]
half-life in plasma [4]: 30 to 36 min
